From ChEMBL document CHEMBL5291721, “A preclinical secondary pharmacology resource illuminates target-adverse drug reaction associations of marketed drugs” (Nat Commun, 2023)

Assays:
[1] = target: Kappa-type opioid receptor (Homo sapiens, UniProt P41145)
[2] = target: T1, Muscarinic acetylcholine receptor M2 (Homo sapiens, UniProt P08172); format: functional, cell-based
T1 sequence (P08172 whole entry): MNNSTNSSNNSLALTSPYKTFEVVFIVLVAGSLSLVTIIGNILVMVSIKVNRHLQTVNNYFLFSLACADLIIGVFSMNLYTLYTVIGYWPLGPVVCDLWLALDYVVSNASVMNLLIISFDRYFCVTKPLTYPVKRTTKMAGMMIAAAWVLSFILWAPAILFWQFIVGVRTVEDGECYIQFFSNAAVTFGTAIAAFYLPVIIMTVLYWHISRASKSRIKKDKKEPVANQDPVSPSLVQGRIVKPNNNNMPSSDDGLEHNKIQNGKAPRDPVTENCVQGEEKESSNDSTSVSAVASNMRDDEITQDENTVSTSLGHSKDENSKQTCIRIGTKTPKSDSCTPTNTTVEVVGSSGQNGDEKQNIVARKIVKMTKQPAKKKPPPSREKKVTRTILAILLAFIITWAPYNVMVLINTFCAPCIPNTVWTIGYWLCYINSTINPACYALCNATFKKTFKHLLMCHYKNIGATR

Histamine H1 receptor = Histamine H1 receptor (Homo sapiens, UniProt P35367)
[3] = target: T2, 5-hydroxytryptamine receptor 2B (Homo sapiens, UniProt P41595); format: functional, cell-based
[4] = target: T3, Neuropeptide Y receptor type 1 (Homo sapiens, UniProt P25929)
T3 sequence (P25929 whole entry): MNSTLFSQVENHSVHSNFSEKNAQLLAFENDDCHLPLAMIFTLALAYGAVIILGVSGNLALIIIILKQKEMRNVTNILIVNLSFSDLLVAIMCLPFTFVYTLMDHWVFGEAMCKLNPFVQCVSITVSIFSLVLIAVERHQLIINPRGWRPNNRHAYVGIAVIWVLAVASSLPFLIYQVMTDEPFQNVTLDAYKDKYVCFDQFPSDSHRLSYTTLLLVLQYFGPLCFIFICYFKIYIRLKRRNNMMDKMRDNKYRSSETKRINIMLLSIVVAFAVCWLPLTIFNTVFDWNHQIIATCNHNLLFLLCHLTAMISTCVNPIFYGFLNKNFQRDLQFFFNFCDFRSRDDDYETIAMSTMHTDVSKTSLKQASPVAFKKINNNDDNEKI

[5] = target: T2, 5-hydroxytryptamine receptor 2B; format: functional, cell-based; remark: listed apart in the source
[6] = target: T4, Cholecystokinin receptor type A (Homo sapiens, UniProt P32238)
T4 sequence (P32238 whole entry): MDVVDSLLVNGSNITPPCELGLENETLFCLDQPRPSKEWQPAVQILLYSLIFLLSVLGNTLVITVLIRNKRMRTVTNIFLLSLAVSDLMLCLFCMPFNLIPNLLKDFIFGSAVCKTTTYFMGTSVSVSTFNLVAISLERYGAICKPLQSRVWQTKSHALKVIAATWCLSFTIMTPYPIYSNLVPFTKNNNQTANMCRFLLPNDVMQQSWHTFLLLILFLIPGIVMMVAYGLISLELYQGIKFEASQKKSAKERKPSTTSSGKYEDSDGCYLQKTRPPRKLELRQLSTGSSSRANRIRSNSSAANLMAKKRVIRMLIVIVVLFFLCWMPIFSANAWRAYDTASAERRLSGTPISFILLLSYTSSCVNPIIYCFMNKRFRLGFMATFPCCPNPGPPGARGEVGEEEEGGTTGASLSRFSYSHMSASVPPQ

Thromboxane A2 receptor = target: T5, Thromboxane A2 receptor (Homo sapiens, UniProt P21731)
T5 sequence (P21731 whole entry): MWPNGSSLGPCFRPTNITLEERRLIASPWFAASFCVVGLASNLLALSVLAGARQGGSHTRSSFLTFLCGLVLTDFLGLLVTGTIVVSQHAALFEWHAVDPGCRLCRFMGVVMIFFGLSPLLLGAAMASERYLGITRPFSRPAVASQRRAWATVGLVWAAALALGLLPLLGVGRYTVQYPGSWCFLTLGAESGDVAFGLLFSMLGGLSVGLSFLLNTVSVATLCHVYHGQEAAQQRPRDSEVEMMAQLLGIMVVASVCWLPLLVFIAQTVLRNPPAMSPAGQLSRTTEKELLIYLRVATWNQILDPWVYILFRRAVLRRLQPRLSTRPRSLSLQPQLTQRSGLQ

[7] = target: Sodium-dependent serotonin transporter (Homo sapiens, UniProt P31645)
[8] = target: Gamma-aminobutyric acid receptor subunit alpha-1 (Rattus norvegicus, UniProt P62813)
Endothelin-1 receptor = target: T6, Endothelin-1 receptor (Homo sapiens, UniProt P25101)
T6 sequence (P25101 whole entry): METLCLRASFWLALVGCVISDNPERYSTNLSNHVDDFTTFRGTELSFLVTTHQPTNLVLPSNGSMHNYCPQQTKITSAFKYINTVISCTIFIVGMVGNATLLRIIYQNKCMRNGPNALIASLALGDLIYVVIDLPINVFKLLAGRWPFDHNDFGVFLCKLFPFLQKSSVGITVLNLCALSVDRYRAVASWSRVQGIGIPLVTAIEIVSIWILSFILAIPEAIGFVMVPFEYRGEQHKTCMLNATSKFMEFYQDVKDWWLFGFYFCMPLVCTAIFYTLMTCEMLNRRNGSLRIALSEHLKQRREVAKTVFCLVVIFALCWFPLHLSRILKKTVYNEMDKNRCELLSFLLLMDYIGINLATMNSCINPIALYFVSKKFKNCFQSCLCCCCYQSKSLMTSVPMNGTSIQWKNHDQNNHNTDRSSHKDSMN

[9] = target: Growth hormone secretagogue receptor type 1 (Homo sapiens, UniProt Q92847)
Further: assay procedure not described here.

Chain of Histamine H1 receptor (P35367 whole entry): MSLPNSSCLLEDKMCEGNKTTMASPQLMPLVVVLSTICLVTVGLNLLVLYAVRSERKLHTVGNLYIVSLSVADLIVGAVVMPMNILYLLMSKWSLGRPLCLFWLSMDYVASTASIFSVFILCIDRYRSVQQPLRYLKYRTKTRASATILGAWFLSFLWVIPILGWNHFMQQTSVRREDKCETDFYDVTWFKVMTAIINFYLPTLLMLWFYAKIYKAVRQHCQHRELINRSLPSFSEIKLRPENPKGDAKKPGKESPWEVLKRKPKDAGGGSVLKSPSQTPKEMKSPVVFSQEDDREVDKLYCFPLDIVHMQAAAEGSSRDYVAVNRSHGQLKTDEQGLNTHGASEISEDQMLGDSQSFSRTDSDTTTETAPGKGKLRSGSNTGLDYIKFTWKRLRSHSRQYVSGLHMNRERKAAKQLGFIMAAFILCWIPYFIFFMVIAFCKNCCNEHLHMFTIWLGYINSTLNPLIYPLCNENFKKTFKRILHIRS
Chain of Kappa-type opioid receptor (P41145 whole entry): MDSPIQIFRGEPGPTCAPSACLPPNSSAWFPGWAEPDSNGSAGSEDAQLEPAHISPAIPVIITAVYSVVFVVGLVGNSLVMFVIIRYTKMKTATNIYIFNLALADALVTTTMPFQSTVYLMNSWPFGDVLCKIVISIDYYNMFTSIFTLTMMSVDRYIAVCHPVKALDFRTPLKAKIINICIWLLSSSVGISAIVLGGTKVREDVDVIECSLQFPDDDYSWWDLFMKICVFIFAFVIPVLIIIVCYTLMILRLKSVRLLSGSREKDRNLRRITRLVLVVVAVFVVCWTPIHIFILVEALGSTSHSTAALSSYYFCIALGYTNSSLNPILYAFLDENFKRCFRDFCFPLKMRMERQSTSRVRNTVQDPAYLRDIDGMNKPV
Chain of Sodium-dependent serotonin transporter (P31645 whole entry): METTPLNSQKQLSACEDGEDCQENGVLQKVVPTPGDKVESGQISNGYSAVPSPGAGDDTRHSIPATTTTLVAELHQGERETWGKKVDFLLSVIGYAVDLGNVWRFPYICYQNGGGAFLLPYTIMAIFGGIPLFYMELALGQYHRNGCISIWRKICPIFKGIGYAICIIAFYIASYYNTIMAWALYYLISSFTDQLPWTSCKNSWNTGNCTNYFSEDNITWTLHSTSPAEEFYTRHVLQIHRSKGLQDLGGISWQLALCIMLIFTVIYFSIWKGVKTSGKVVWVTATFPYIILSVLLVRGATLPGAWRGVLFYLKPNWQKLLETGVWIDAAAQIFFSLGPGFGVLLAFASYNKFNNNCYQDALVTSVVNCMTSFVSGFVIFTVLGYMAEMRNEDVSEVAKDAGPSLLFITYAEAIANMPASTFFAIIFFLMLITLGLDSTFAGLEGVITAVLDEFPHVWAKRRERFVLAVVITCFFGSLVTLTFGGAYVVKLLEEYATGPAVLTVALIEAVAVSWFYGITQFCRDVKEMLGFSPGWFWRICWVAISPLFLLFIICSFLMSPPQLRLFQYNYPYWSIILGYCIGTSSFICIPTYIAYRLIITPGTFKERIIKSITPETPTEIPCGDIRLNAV
T2 sequence (P41595 whole entry): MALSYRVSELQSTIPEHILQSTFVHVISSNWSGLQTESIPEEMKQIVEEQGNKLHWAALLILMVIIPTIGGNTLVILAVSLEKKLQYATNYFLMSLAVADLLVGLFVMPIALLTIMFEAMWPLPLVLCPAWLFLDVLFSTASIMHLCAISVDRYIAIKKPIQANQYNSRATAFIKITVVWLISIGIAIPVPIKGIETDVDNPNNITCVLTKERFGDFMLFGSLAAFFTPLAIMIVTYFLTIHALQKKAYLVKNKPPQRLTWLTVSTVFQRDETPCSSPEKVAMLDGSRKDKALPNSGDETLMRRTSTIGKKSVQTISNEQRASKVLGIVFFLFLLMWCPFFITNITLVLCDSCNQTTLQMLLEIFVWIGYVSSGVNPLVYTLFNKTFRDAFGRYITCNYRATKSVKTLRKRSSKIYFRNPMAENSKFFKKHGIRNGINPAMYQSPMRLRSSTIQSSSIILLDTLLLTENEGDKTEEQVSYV
Chain of Gamma-aminobutyric acid receptor subunit alpha-1 (P62813 whole entry): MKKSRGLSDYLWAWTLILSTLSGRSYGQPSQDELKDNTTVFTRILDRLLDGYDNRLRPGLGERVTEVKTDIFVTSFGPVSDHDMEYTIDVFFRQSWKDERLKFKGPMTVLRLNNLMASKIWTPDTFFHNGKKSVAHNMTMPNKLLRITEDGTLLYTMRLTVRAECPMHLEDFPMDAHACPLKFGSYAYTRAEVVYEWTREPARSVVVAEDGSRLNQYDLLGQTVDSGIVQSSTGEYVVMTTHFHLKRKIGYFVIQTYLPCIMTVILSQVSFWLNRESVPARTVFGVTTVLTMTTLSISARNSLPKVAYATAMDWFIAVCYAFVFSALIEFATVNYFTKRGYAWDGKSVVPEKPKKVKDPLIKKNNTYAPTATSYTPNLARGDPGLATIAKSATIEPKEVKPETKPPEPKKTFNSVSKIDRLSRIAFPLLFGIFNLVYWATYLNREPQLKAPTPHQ
Chain of Growth hormone secretagogue receptor type 1 (Q92847 whole entry): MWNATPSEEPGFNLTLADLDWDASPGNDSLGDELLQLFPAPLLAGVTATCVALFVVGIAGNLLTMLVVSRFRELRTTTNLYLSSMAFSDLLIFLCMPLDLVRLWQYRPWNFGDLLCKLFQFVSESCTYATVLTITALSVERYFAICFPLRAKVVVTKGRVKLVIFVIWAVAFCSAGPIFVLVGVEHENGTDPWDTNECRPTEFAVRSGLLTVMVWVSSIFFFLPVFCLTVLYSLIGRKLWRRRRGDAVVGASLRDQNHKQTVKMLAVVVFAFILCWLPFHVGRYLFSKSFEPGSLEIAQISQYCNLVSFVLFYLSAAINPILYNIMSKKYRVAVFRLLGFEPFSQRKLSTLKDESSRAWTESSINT

Row | SMILES | AC50 [1] | AC50 [2] | AC50 (Histamine H1 receptor) | AC50 [3] | AC50 [4] | AC50 [5] | AC50 [6] | AC50 (Thromboxane A2 receptor) | AC50 [7] | AC50 [8] | AC50 (Endothelin-1 receptor) | AC50 [9]
1 | CCCCCCOC(=O)CCC(=O)CN [HEXAMINOLEVULINATE] | > 30 µM | > 30 µM | > 30 µM | > 30 µM | > 30 µM | > 30 µM | > 30 µM | > 30 µM | > 30 µM | > 30 µM | > 30 µM | > 30 µM
2 | CC(C)OC(=O)C(C(=O)OC(C)C)=C1SC=CS1 [MALOTILATE] | > 30 µM | > 30 µM | > 30 µM | > 30 µM | > 30 µM | > 30 µM | > 30 µM | > 30 µM | > 30 µM | > 30 µM | > 30 µM | > 30 µM
3 | CN(c1nccc(=O)[nH]1)C1CCN(c2nc3ccccc3n2Cc2ccc(F)cc2)CC1 [MIZOLASTINE] | > 30 µM | > 30 µM | > 30 µM | 17 µM | > 30 µM | > 30 µM | > 30 µM | > 30 µM | > 30 µM | > 30 µM | > 30 µM | > 30 µM
4 | O=C1CN=C(c2ccccc2)c2cc(Cl)ccc2N1 [NORDAZEPAM] | 9.97 µM | > 10 µM | > 10 µM | > 10 µM | > 30 µM | > 10 µM | > 30 µM | > 30 µM | > 10 µM | > 10 µM | > 30 µM | > 30 µM
5 | CC(CCc1ccccc1)NC(C)C(O)c1ccc(O)cc1 (stereo unspecified) [NYLIDRIN] | 4.98 µM | > 10 µM | > 10 µM | 6.9 µM | > 30 µM | > 10 µM | > 30 µM | > 30 µM | > 10 µM | > 10 µM | > 30 µM | > 30 µM
6 | O=C1Nc2ccc(Cl)cc2C(c2ccccc2)=NC1O (stereo unspecified) [OXAZEPAM] | > 10 µM | > 10 µM | > 10 µM | > 10 µM | > 30 µM | > 10 µM | > 30 µM | > 30 µM | > 10 µM | > 10 µM | > 30 µM | > 30 µM
7 | CC[N+]1(C)CCCC(OC(=O)C(O)(c2ccccc2)c2ccccc2)C1 (stereo unspecified) [PIPENZOLATE] | > 30 µM | 0.023 µM | 27 µM | > 30 µM | > 30 µM | > 30 µM | > 30 µM | > 30 µM | > 30 µM | > 30 µM | > 30 µM | > 30 µM
8 | CC(=O)c1ccc2c(c1)N(CCCN1CCC(CCO)CC1)c1ccccc1S2 [PIPERACETAZINE] | 4 µM | 24 µM | 0.034 µM | 4.7 µM | > 30 µM | > 30 µM | > 30 µM | > 30 µM | 1.3 µM | > 30 µM | > 30 µM | > 30 µM
9 | Cc1ccc(=O)n(-c2ccccc2)c1 [PIRFENIDONE] | > 30 µM | > 30 µM | > 30 µM | > 30 µM | > 30 µM | > 30 µM | > 30 µM | > 30 µM | > 30 µM | > 30 µM | > 30 µM | > 30 µM
10 | CCN(CC)CC(=O)Oc1ccc(NC(C)=O)cc1 [PROPACETAMOL] | 18 µM | > 30 µM | > 30 µM | > 30 µM | > 30 µM | > 30 µM | > 30 µM | > 30 µM | > 30 µM | > 30 µM | > 30 µM | > 30 µM
11 | CCCOC(C(=O)OC1CCN(C)CC1)(c1ccccc1)c1ccccc1 [PROPIVERINE] | 11 µM | 3.6 µM | 18 µM | 16 µM | > 30 µM | > 30 µM | > 30 µM | > 30 µM | > 30 µM | > 30 µM | > 30 µM | > 30 µM
12 | CC(NCCc1ccc(O)cc1)C(O)c1ccc(O)cc1 (stereo unspecified) [RITODRINE] | 14.4 µM | > 10 µM | > 30 µM | > 30 µM | > 30 µM | > 30 µM | > 30 µM | > 30 µM | 16.3 µM | > 30 µM | > 30 µM | > 30 µM
13 | COc1c(O[C@@H]2O[C@H](CO)[C@@H](O)[C@H](O)[C@H]2O)cc2c(c1OC)-c1ccc(SC)c(=O)cc1[C@@H](NC(C)=O)CC2 [THIOCOLCHICOSIDE] | > 30 µM | > 30 µM | > 30 µM | > 30 µM | > 30 µM | > 30 µM | > 30 µM | > 30 µM | > 30 µM | 6.2 µM | > 30 µM | > 30 µM
